# Key:
# [1] = Acute oral toxicity, 14 days observation; settings: rat, in vivo, 500 mg/kg
# ethanolic narcosis = experiment: Ethanolic narcosis period in rats (righting reflex); format: in vivo, Hann.-Wistar rats; settings: 1 h before ethanol i.p., n=10, control 100 ± 5.2
# Method: The animals were treated with various doses of the compounds of the formula (I) in groups of ten, orally, One hour after treatment the rats were treated with […]. of ethanol intraperitoneally (i.p.). The narcosis period of the animals was measured from the elapse of the righting reflex until a spontaneous correction of the body position. The average of the narcosis period and the percentage difference from the control were calculated. The control group was treated with placebo and […]. of ethanol.
# [2] = system: alcoholic intoxication, narcosis; settings: in vivo; cited from earlier work
# [3] = system: spontaneous locomotoric activity; settings: in the dose range that normalizes ethanolic hyperactivity; cited from earlier work
# [4] = system: ethanolic locomotoric hyperactivity; settings: mice; in a dose range which decreases spontaneous locomotoric activity; cited from earlier work
smiles,measurement,setting,value
"CCC(O)(c1ccc(O)cc1)c1ccccc1C(F)(F)F (stereo not drawn) [A, 2-trifluoromethyl-4'-hydroxy-α-ethyl-benzhydrol]",mortality at 336 h,[1],0%
same,"Ethanolic narcosis period, x ± S.E.",ethanolic narcosis; 5.0 mg./kg. orally,69 ± 4.5
same,"Ethanolic narcosis period, x ± S.E.",ethanolic narcosis; 20.0 mg./kg. orally,52 ± 6.0
same,"Ethanolic narcosis period, x ± S.E.",ethanolic narcosis; 40.0 mg./kg. orally,39 ± 3.4
"CCC(O)(c1ccc(O)cc1)c1cccc(Cl)c1 (stereo not drawn) [B, 3-chloro-4'-hydroxy-α-ethyl-benzhydrol]",mortality at 336 h,[1],0%
same,"Ethanolic narcosis period, x ± S.E.",ethanolic narcosis; 40.0 mg./kg. orally,60 ± 7.5
"N[C@@H](CS)C(=O)O [L-cysteine, reference compound]","Ethanolic narcosis period, x ± S.E.",ethanolic narcosis; 500.0 mg./kg.,63 ± 4.2
same,"Ethanolic narcosis period, x ± S.E.",ethanolic narcosis; 1000.0 mg./kg.,66 ± 5.9
same,"Alcoholic intoxication, narcosis",[2],shortened
CC(N)(Cc1ccc(O)cc1)C(=O)O (stereo not drawn) [α-Methyl-para-tyrosine],Spontaneous locomotoric activity,[3],decreases the spontaneous locomotoric activity
same,Ethanolic locomotoric hyperactivity,[4],normalizes the ethanolic locomotoric hyperactivity

# Reference: patent publication US4508926A, “4-Hydroxy-benzhydrols, process for their preparation and pharmaceutical compositions containing them” (Richter Gedeon Vegyeszeti Gyar Rt., priority 1982, dated 1985)
